Experimental data taken from paper PMC8810773, “Structure-based prediction of HDAC6 substrates validated by enzymatic assay reveals determinants of promiscuity and detects new potential substrates” (Scientific Reports, 2022).

Target: T1, HDAC6 catalytic domain 2 (DD2) (Danio rerio, UniProt F8W4B7)
T1 construct: cloning the residues 440–798 of the Danio rerio HDAC6 gene into a modified pET28a(+) vector; 6xHis (N, cleaved yes); made in house; host or cells: E. coli BL21(DE3)
T1 sequence (F8W4B7 440-798): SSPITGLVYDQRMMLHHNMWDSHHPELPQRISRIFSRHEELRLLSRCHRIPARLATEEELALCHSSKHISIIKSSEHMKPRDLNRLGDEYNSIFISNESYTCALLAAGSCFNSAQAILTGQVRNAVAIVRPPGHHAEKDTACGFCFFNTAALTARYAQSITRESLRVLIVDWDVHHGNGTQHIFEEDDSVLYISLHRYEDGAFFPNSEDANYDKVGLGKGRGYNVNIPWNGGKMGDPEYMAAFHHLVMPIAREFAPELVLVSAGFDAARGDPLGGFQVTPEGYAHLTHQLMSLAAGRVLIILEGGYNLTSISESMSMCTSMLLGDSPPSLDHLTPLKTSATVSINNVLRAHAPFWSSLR
Assay: Enzyme-coupled acetate detection assay ('acetate assay') of HDAC6-catalyzed peptide deacetylation
Assay type: biochemical
Conditions: Michaelis–Menten fit ± standard error; for kcat/KM: 10–2000 μM monoacetylated substrate, 0.1–1 μM HDAC6 DD2, 50 mM HEPES pH 8.0, 137 mM NaCl, 2.7 mM KCl, 1 mM MgCl2, 30 °C, NADH fluorescence, lower limits where KM below detection limit
Description: We used an enzyme-coupled acetate detection assay, or simply the ‘acetate assay’ (see “Methods”), developed and applied previously[12],[27], to measure the catalytic efficiency (kcat/KM) of HDAC6. We measured catalysis of deacetylation of acetylated peptides with sequences taken from known substrate proteins, as well as a set of selected peptides with reported acetylation sites that were available to us from previous studies (Table 1). […] To ensure an accurate determination of kcat/KM we measured HDAC6-catalyzed deacetylation at a minimum of four peptide concentrations, with at least two concentrations below KM (Fig. 1, squares). A total of 26 peptides which met these criteria formed our training set (D-TRAINING, Table 1). Additionally, we included 16 peptides where the value of kcat was measured accurately but the KM value was lower than the limit of detection for the acetate assay (~ 10–20 μM substrate, circles in Fig. 1) allowing only the determination of a lower limit for the value of kcat/KM (set D-CAPPED, see below and Table 1). The measured kcat/KM values span the range of three orders of magnitude.
Figure 1 Dependence of deacetylation rate on substrate concentration for two representative peptides catalyzed by HDAC6, measured using the acetate assay. The initial velocity for each substrate concentration was determined from a linear regression of a time course consisting of a minimum of three timepoints, standard error is shown. The kinetic parameters are determined from a nonlinear least square fit of the Michaelis–Menten equation to the data and are listed in Table 1. Black squares: example of data which met the criteria to produce accurate kcat/KM values. Green circles: example of overfit data resulting in calculation of a lower limit for kcat/KM, due to the KM being lower than the detection limit of the assay.
The coupled acetate detection assay or simply the ‘acetate assay’ was performed as previously described with a few modifications. Briefly, lyophilized peptides were re-suspended in water when possible or with minimal quantities of acid, base, or organic solvent to improve solubility. Peptide concentration was determined by one or more of the following methods: (1) measuring A280 using the extinction coefficients if the peptide contained a tryptophan or tyrosine, using the fluorescamine assay if the peptide contained a free lysine, (2) performing the bicinchoninic acid (BCA) assay using bovine serum albumin (BSA) as a standard, and (3) determining the concentration of acetate produced by complete deacetylation of the peptide by HDAC6.
Reactions containing 10–2000 μM monoacetylated peptides in 1× HDAC6 assay buffer (50 mM HEPES, pH 8.0, 137 mM NaCl, 2.7 mM KCl, 1 mM MgCl2) were initiated with 0.1–1 μM HDAC6 at 30 °C. […]

For “RKSTGG(K-ac)APRKQL [13-mer: RKSTGG(K-ac)APRKQL, H3 K14ac 13-mer peptide]”, the kcat/KM was 140,000±10,000 M^−1 s^−1, the kcat/KM (listed as 13-mer peptide analog) was 140000 M⁻¹ s⁻¹ and the kcat (HDAC6 DD2, pH 8.0, 30 °C) was 4.1 ± 0.3 s⁻¹. For the same substance, the Km (HDAC6 DD2, pH 8.0, 30 °C, detection limit ~10–20 μM substrate) was 28 ± 5 µM.
